# Source: article PMC11157767 (Molecular Cancer, 2024)
# Tested on: murine TFG-MET tumor cells
# Conditions: 7 days; RT 0Gy - 8Gy
# Description: For both compounds 1 µM was used as positive control.
# Compound concentrations comprised 10µM and 9 serial 1:3 dilutions in 4 replicates each and radiation doses ranged from 0Gy – 8Gy. […] Tested compound concentrations comprised 10 µM and 9 serial 1:3 dilutions in 4 replicates each. ZIP synergy scores were calculated based on cell numbers according to the CellTiter-Glo Assay by using the synergyfinder tool.
row,Compound,combination effect with RT (ZIP synergy model)
1,CNC(=O)c1ccc(-c2cnc3ncc(Cc4ccc5ncccc5c4)n3n2)cc1F [Capmatinib],additive effect with a trend towards synergy
2,C[C@@H](Oc1cc(-c2cnn(C3CCNCC3)c2)cnc1N)c1c(Cl)ccc(F)c1Cl [Crizotinib],additive effect with a trend towards synergy
